Laboratory results: patent US20250041387A1, “POLYPEPTIDE SEQUENCE OF KDM6B AND APPLICATION OF KDM6B IN REGULATING AND CONTROLLING FUNCTION OF MESENCHYMAL STEM CELL” (BEIJING STOMATOLOGICAL HOSPITAL, CAPITAL MEDICAL UNIVERSITY, priority 2021, published 2025)

What was measured:
[1] = test system: senescent bone marrow mesenchymal stem cells; experiment: β-gal staining in senescent BMSCs of aged mice; assay type: cell-based, C57BL/6 mice; conditions: FIG. 5A
Experimental: Prior to the start of the experiment, the GENMED staining solution (Reagent E) in the kit was taken out of the refrigerator at −20° C., and thawed in an ice bath. Then 9.5 mL of GENMED dilution (Reagent D) was added into a 15 ml conical centrifuge tube, added with 500 μL of GENMED staining solution (Reagent E), mixed well, and then preheated in a 37° C. thermostatic sink. The obtained mixture was labeled as GENMED staining working solution.

[2] = test system: telomerase reverse transcriptase; experiment: ELISA assay of telomerase reverse transcriptase in SCAPs; assay type: cell-based, human; conditions: SCAPs treated with polypeptide, FIG. 8B
Experimental: (§1) • (1) Pre-detection preparation: A standard curve was calculated and plotted using a standard concentration gradient of 400 ng/mL, 200 ng/ml, 100 ng/ml, 50 ng/mL, 25 ng/ml, 12.5 ng/mL, 6.25 ng/mL, and 0 ng/mL. • (2) 100 μL of the standards and samples were added to each well of a 96-well plate. The plate was covered with a provided sealing film, and incubated at 37° C. for 2 hours. The name of the sample was noted on the surface of the sealing film. • (3) The sample in each well was discarded and spin-dried without washing. • (4) 100 μL of Biotin-antibody (1×) was added to each well. The plate was covered with a sealing film, and incubated at […] for 1 hour. If Biotin-antibody (1×) appeared cloudy, Biotin-antibody was warmed to room temperature and stirred gently until clear. • (5) The sample in each well was discarded. Each well was added with 200 μL of Wash Buffer using a multichannel pipette and left to stand for 2 minutes for washing. This process was repeated twice for a total of three times of washing. Complete removal of liquid at each step was critical for good performance. After the last time of washing, the Wash Buffer was discarded, and the 96-well plate was turned upside down and dried with a clean paper. • (6) 100 μL of HRP-avidin (1×) was added to each well. The 96-well microtiter plate was covered with a new sealing film and incubated at 37° C. for 1 hour. • (7) The process of discarding samples and washing in […] was repeated 5 times. • (8) 90 μL of TMB Substrate was added to each well. The plate was incubated in the dark at 37° C. for 15-30 minutes. 50 μL of Stop Solution was added to each well, and the plate was gently taped to mix solution evenly. • (9) The optical density of each well was detected at 450 nm within 5 min using a microtiter plate reader.

WDR5 synthetic protein = WDR5 synthetic protein (Homo sapiens, UniProt P61964); experiment: Polypeptide microarray of KDM6B incubated with biotin-labeled WDR5; assay type: binding; conditions: FIG. 3A, B; positive = optical density more than 30%
From the text: • (1) Synthesis of polypeptide chip: A polypeptide chip was designed by overlapping and synthesized according to the sequence of KDM6B protein, with a total of two arrays. • (2) Synthesis of polypeptide microarray: A matrix membrane was activated, and placed on a fully automated polypeptide chip synthesizer. A Fmoc-amino acid solution was automatically transferred to a specific position on the activated membrane according to the set procedure, to react with the membrane. The membrane was immersed sequentially into the blocking solution I and II to block side chains, and washed with dimethyl formamide (DMF). The membrane was placed in a deprotection solution to remove the Fmoc protective group at the amino-terminal, then washed with DMF, and dried with ethanol. The above steps were repeated until all polypeptide microarrays were completely synthesized. After the synthesis was completed, the protective groups of the side chains were removed with specific organic reagents. […] The control group was incubated with the blocking solution. • (6) Streptavidin-HRP incubation: The reaction reagent Streptavidin-HRP (High Sensitivity Streptavidin-HRP (prod #21133)) was diluted with the blocking solution in an ratio of 1:10000, and then the polypeptide microarray chip was incubated with 5 ml of the diluted Streptavidin-HRP under shaking at room temperature for 2 hours, and washed. • (7) Color development: ECL luminescence reagent was added, and digital imaging was performed on a Chempchemi digital imager. • (8) Scan of polypeptide microarray chip and data analysis of color spot: The colored polypeptide microarray chip was imaged at 425 nm using the Chempchemi Imaging System with 200 s exposure. The optical density of colored spots was analyzed using TotalLab image analysis software, and the optical density of each colored spot was calculated using the “Spot Edge Average” algorithm in the software, with the optical density of the surrounding background of each colored spot as a reference. […]

[3] = test system: senescent bone marrow mesenchymal stem cells; experiment: Alizarin red staining and calcium quantification in senescent BMSCs of aged mice; assay type: cell-based, C57BL/6 mice; conditions: 2 weeks of osteogenic induction, FIG. 5C, D
Experimental: (§2) Result of ALP activity was calculated according to Y/incubation time/protein concentration. • (3) Alizarin red staining • 1) After two weeks of osteogenic induction, the culture medium was discarded. The cells were washed three times with PBS pre-cooled at 4° C., and fixed with 70% ethanol at 4° C. for 1 hour. • 2) The cells were washed 2 times with double distilled water, and stained with 40 mM alizarin red solution (pH 4.2) at room temperature for 10 minutes. The staining was observed by naked eyes. • 3) The cells were washed 3 times with double-distilled water. • (4) Determination of Ca^2+ concentration
(§3) To quantitatively determine the concentration of calcium, the cells were added with 10% cetyl pyridinium chloride for dissolution for 30 minutes at room temperature. The OD value was measured at 562 nm using a spectrophotometer, and the calcium ion concentration of the samples was calculated according to the standard curve of calcium ion concentration, with the total protein concentration as an internal reference.

[4] = test system: bone marrow mesenchymal stem cells; experiment: Alizarin red staining and calcium quantification in BMSCs; assay type: cell-based, human; conditions: 2 weeks in osteogenic induction culture medium, FIG. 4E, F
Experimental: as §2, §3

[5] = test system: telomerase reverse transcriptase; experiment: ELISA assay of telomerase reverse transcriptase in BMSCs; assay type: cell-based, human; conditions: FIG. 4A
Experimental: as §1

[6] = test system: stem cells from apical papilla; experiment: Alizarin red staining and calcium quantification in SCAPs; assay type: cell-based, human; conditions: SCAPs treated with polypeptide, 2 weeks of odontogenic induction, FIG. 8F, G
Experimental: as §2, §3

Row | Substance | number of β-gal positive cells [1] | expression of telomerase reverse transcriptase (ELISA) [2] | binding degree to WDR5 on polypeptide microarray (optical density of spots) (WDR5 synthetic protein) | mineralization capacity, quantification of calcium ion [3] | mineralization capacity, quantification of calcium ion ([3]; listed as 102 peptide) | mineralization capacity, quantification of calcium ion [4] | mineralization capacity, quantification of calcium ion ([4]; listed as 102 peptide) | expression of telomerase reverse transcriptase (ELISA) [5] | mineralization capacity, quantification of calcium ion [6] | mineralization capacity, quantification of calcium ion ([6]; listed as 102 peptide) | expression of telomerase reverse transcriptase (ELISA) ([2]; listed as 114 peptide) | mineralization capacity, quantification of calcium ion ([3]; listed as 114 peptide) | mineralization capacity, quantification of calcium ion ([4]; listed as 114 peptide) | expression of telomerase reverse transcriptase (ELISA) ([5]; listed as 114 peptide) | mineralization capacity, quantification of calcium ion ([6]; listed as 114 peptide)
1 | FITC-(Acp)-KEKSRRVLGNLDLQSYGRKKRRQRRR [peptide 102] | significant reduction | 0.03331 | higher binding degree | significantly higher | 1.154 | significantly higher | 1.584 | 0.02236 | significantly higher | 1.637 |  |  |  |  | 
2 | FITC-(Acp)-ADLTISHCAADVVRAYGRKKRRQRRR [peptide 114] | significant reduction | promoted the expression | higher binding degree | significantly higher |  | significantly higher |  | promote the expression | significantly higher |  | 0.05168 | 1.251 | 1.807 | 0.03888 | 1.619
